Data taken from patent US4562206A, “Orally effective inotropic compounds” (Key Pharmaceuticals, Inc., priority 1984, dated 1985).
Entries after “also recorded” stand apart in the source; their conditions may differ. Counter-ions that a name gives are not always drawn.

Columns and labels:
cardiac contractility [1] = assay: Intravenous infusion rates required to increase cardiac contractility by 50%, anesthetized dogs; type: in vivo
[2] = Blood (plasma) levels during intravenous infusion in anesthetized dog, HPLC with electrochemical detection; type: in vivo; details: i.v. infusion 20 ug/kg/min; for concentration at 10 min / concentration at 20 min / concentration at 0.5 h: plasma, iv; for concentration at 10 min: infusion time 10 mins; for concentration at 20 min: infusion time 20 mins; for concentration at 0.5 h: infusion time 30 mins
Procedure: The data in Table 1 were obtained from a dog anesthetized with sodium pentobarbital (30 mg/kg, i.v.). The right femoral vein was cannulated for administration of drug and the left femoral vein was used for withdrawal of blood samples. All blood samples were collected in heparinized chilled tubes. The blood was centrifuged to separate red cells and the plasma was frozen.
After obtaining a control blood sample, dobutamine infusion at the rate of 20 ug/kg/min was maintained for 30 mins. During the infusion, blood samples were drawn at 10, 20, and 30 mins. One hour after completion of the dobutamine infusion, a second control sample of blood was drawn and an infusion of Compound I at 20 ug/kg/min was begun. Samples of blood were taken during the Compound I infusion at 10, 20, and 30 mins.
The concentrations of Compound I and dobutamine in plasma were measured using HPLC with electrochemical detection. Chromatography was performed using a reverse-phase octadecylsilane (C18) column attached to an amperometric detector equipped with a glassy carbon electrode at a potential of +600 mV. The mobile phase consisted of acetonitrile:pH 3 buffer (15:85); the buffer (pH 3) contained 0.035M KH2 PO4, 0.003M citric acid and 0.002M Na2 EDTA. At a flow rate of 1.5 ml/min, Compound I, dobutamine and the internal standard for the assay (dioxymethylene derivative of dobutamine) eluted in […] respectively.
In the assay procedure, control plasma (1 mil) spiked with 0, 20, 100, 300 and 500 ng/ml test drug was added to silanized glass tubes (13×128 mm) containing 100 ng of the internal standard as a solution in 100 ul of 5M K2 HPO4. The samples were mixed and extracted twice with 4 ml of ethyl acetate. Following centrifugation, the combined organic extracts were evaporated, the residue dissolved in […] of mobile phase and a 10-15 ul aliquot injected into the chromatograph. Calibration curves were constructed by plotting the peak height ratios of test drug to the internal standard over the concentration range and interpolation of unknown plasma concentrations from the fitted line.

cardiac contractility [3] = assay: Cardiac contractility (inotropic effect), intravenous infusion, anesthetized open-chest dogs, strain gauge arch on right ventricle; type: in vivo; details: for Inotropic Potency Relative to Dobutamine, Mean ± S.E.: i.v. infusion, based on CC50 (rate that increases contractility by 50%)
Procedure: (§1) The data in FIGS. 1 and 2 and Table 2 were obtained on dogs anesthetized with sodium pentobarbital (30 mg/kg, i.v.). The animals were placed on artificial respiration and the chest was opened to expose the heart. A Walton-Brodie strain gauge arch was sutured to the right ventricle for measurement of cardiac contractility. Arterial blood pressure was measured from a catheter placed in the abdominal aorta. Cardiac contractility and arterial pressure were recorded continuously on a Grass polygraph. All drugs were dissolved and infused intravenously in 0.9% NaCl solution.

left ventricular dP/dt = assay: Inotropic response (left ventricular dP/dt) after buccal administration, anesthetized dogs; type: in vivo
Source text: The dogs were anesthetized with sodium pentobarbital as described above and a Millar® transducer-tip catheter positioned in the left ventircle after introduction through the left carotid artery. Left ventricular pressure was obtained from this catheter and electronically differentiated to obtain dP/dt.
The dogs were placed on their backs, and their heads and noses positioned so that their hard palates were level. After an appropriate period to collect control dP/dt values, the test drug was applied to the hard palate. The test drugs were made up in a solution of 50% ethanol in distilled water adjusting concentrations so that the desired dose was contained in 2.5 ml of solution. The drug solution was applied to a 100 mm^2 area of the hard palate contained by fitting parafilm over the drug solution lying on the palate.

cardiac contractility [4] = assay: Inotropic response (LV dP/dt) when swallowed, conscious instrumented dogs; type: in vivo; details: 5 mg/kg oral capsule
Procedure: To test the effectiveness of Compound I when swallowed, five previously trained dogs, instrumented with a miniature pressure transducer for measurement of cardiac contractility were used. On different days the conscious dogs were tested with placebo, dobutamine (5 mg/kg) or Compound I (5 mg/kg).
Several months prior to doing the procedure described above, a minature pressure transducer was mounted in the left ventricle of each dog's heart. The dogs were trained to swallow capsules and lie quietly for up to 3 hours. During this time, continuous recording of left ventricular pressure was made on a Grass polygraph. Also recorded was an electronically differentiated signal on the left ventricular pressure. This differential is referred to as LV dP/dt. This LV dP/dt is the rate that the left ventricle develops pressure and is accepted as an index of cardiac contractility.
On each day of testing the dogs were forced to swallow a gelatin capsule that was either empty (placebo), or contained dobutamine (5 mg/kg) or Compound I (5 mg/kg). Recordings were then made of cardiac contractility for 2 hours after the dog swallowed the capsule.

diastolic blood pressure = assay: Arterial blood pressure change, intravenous infusion, anesthetized open-chest dogs; type: in vivo; details: for Blood Pressure, Mean ± S.E. (change in diastolic blood pressure): dose 4 times larger than CC50, i.v.; for effect on blood pressure: i.v.
Source text: To illustrate the structural specificity of the compounds of the invention, four close structural analogs of Compound I were synthesized and their activity compared to that of Compound I. In these tests dobutamine was used as a standard so that Compound I and the four structural analogs could be compared on a common basis. FIGS. 1 and 2 graphically compares dobutamine, Compound I and Compound V (the closest structural analog of dobutamine and Compound I).
as §1
Blood Pressure = change in diastolic blood pressure caused by a dose 4
times larger than CC50 -

[5] = Buccal absorption of ester relative to parent (buccal versus intravenous potency comparison); type: in vivo, dogs; details: buccal versus i.v. potency, Compound I-A vs Compound I
Source text: Yet by the buccal route of administration, the ester was more than twice as potent as its parent. Therefore, the ester derivative was better absorbed through the buccal mucosa by a factor of more than eighteen times than was the parent compound.

[6] = background; cited from earlier work
[7] = tested on: cardiac beta1 adrenergic receptors; details: background, Tuttle and Mills, Circ. Res. 36: 185, 1975; cited from earlier work

In the case of `CC(CCc1cccc(C(N)=O)c1)NCCc1ccc(O)c(O)c1` (stereo not shown) [Compound I, N-[2-(3,4-dihydroxyphenyl)ethyl]-1-methyl-3-(3-carbamoylphenyl)propylaminehydrochloride], the “Intravenous infusion rate required to increase cardiac contractility by 50%” value (cardiac contractility [1]; Dog #1, i.v.) is reported as 0.29 µg/kg/min, the “Intravenous infusion rate required to increase cardiac contractility by 50%” value (cardiac contractility [1]; Dog #2, i.v.) is reported as 0.097 µg/kg/min and the “Blood levels compared with dobutamine” value [2] is reported as “higher blood levels than dobutamine”. For the same compound, the concentration at 10 min [2] was 417 ng/mL, the concentration at 20 min [2] was 451 ng/mL and the concentration at 0.5 h [2] was 874 ng/mL. The “dose relative to that of dobutamine required for equivalent inotropic effect” value (cardiac contractility [3]; i.v.) was “about a tenth”, the “times more potent than dobutamine” value (cardiac contractility [3]; i.v.) was “about ten” and the “Inotropic Potency Relative to Dobutamine, Mean ± S.E.” value (cardiac contractility [3]) was 9.1 ± 2.4. For the same compound, the “Inotropic Response, Percent Change from Control, Mean ± S.E. (peak change in left ventricular dP/dt)” value (“Inotropic Response, Percent Change” for short) (left ventricular dP/dt; 2 mg/kg) was 16.6 ± 6%, the “inotropic response when swallowed” value (cardiac contractility [4]) was “strong inotropic response; also recorded: effective when swallowed” and the “persistence of inotropic response when swallowed” value (cardiac contractility [4]) was “more than two”. The “Blood Pressure, Mean ± S.E. (change in diastolic blood pressure)” value (diastolic blood pressure) was 5.3 ± 4.5 and the “effect on blood pressure” value (diastolic blood pressure) was “no significant change in blood pressure; also recorded: no greater than that of dobutamine”.
For `CC(CCc1cccc(C(N)=O)c1)NCCc1ccc(OC(=O)C(C)C)c(OC(=O)C(C)C)c1` (stereo not shown) [Compound I-A, N[2-(3,4-diisobutyryloxyphenyl)ethyl]-1-methyl-3-(3-carbamoylphenyl)propylamine hydrochloride], the “Dose Ratio (Compound I-A to Compound I)” value (cardiac contractility [1]; Dog #1, i.v.) was 9.6, the “Intravenous infusion rate required to increase cardiac contractility by 50%” value (cardiac contractility [1]; Dog #1, i.v.) was 2.8 µg/kg/min and the “Dose Ratio (Compound I-A to Compound I)” value (cardiac contractility [1]; Dog #2, i.v.) was 12.9. The “Intravenous infusion rate required to increase cardiac contractility by 50%” value (cardiac contractility [1]; Dog #2, i.v.) was 1.25 µg/kg/min, the “times less potent than parent catechol (Compound I)” value (cardiac contractility [1]; intravenous infusion) was “more than nine” and the “factor of better absorption through the buccal mucosa than parent compound” value [5] was “more than eighteen”. For the same compound, the “Inotropic Response, Percent Change” value (left ventricular dP/dt; 1.39 mg/kg) was 61 ± 3%, the “inotropic response, buccal” value (left ventricular dP/dt; anesthetized dogs) was “the most effective by this route” and the “buccal potency relative to Compound I” value (left ventricular dP/dt; molar basis, anesthetized dogs) was “more than twice”.
For `CC(CCc1cccc(C(N)=O)c1)NCCc1ccc(OC(=O)C(C)(C)C)c(OC(=O)C(C)(C)C)c1` (stereo not shown) [Compound I-B], the “Inotropic Response, Percent Change” value (left ventricular dP/dt; 1.39 mg/kg) was 13 ± 7% and the “inotropic response, buccal” value (left ventricular dP/dt; anesthetized dogs) was “small response”.
For `NC(=O)c1cccc(CCCNCCc2ccc(O)c(O)c2)c1` [Compound III], the “inotropic potency” value (cardiac contractility [3]; i.v.) was “potency was reduced”, the “Inotropic Potency Relative to Dobutamine, Mean ± S.E.” value (cardiac contractility [3]) was 1.4 ± 1 and the “Blood Pressure, Mean ± S.E. (change in diastolic blood pressure)” value (diastolic blood pressure) was 22.3 ± 16.2. The “effect on blood pressure” value (diastolic blood pressure) was “undesired elevation in blood pressure”.
In the case of `NC(=O)c1cccc(CCNCCc2ccc(O)c(O)c2)c1` [Compound II], the “inotropic potency” value (cardiac contractility [3]; i.v.) is reported as “not significantly better than that of dobutamine”, the “Inotropic Potency Relative to Dobutamine, Mean ± S.E.” value (cardiac contractility [3]) is reported as 1.5 ± 0.1 and the “Blood Pressure, Mean ± S.E. (change in diastolic blood pressure)” value (diastolic blood pressure) is reported as -8 ± 5. For the same compound, the “effect on blood pressure” value (diastolic blood pressure) was “no rise in blood pressure”.
In the case of `NC(=O)c1ccc(CCNCCc2ccc(O)c(O)c2)cc1` [Compound IV], the “Inotropic Potency Relative to Dobutamine, Mean ± S.E.” value (cardiac contractility [3]) is reported as 1.38 ± 0.2, the “Blood Pressure, Mean ± S.E. (change in diastolic blood pressure)” value (diastolic blood pressure) is reported as 26 ± 10 and the “effect on blood pressure” value (diastolic blood pressure) is reported as “the blood pressure side effect reappears”.
With `CC(CCc1ccc(C(N)=O)cc1)NCCc1ccc(OC(=O)C(C)C)c(OC(=O)C(C)C)c1` (stereo not shown) [Compound V-A] the “Inotropic Response, Percent Change” value (left ventricular dP/dt; 1.39 mg/kg) was “No response” and the “inotropic response, buccal” value (left ventricular dP/dt; anesthetized dogs) was “no response”.
With `CC(CCc1ccc(C(N)=O)cc1)NCCc1ccc(O)c(O)c1` (stereo not shown) [Compound V] the “cardiac potency relative to that with carbamyl group in meta position (Compound I)” value (cardiac contractility [3]; i.v.) was “less than a third”, the “Inotropic Potency Relative to Dobutamine, Mean ± S.E.” value (cardiac contractility [3]) was 2.9 ± 0.3 and the “effect on blood pressure” value (diastolic blood pressure) was “dangerous rise in blood pressure”.
For `CC(CCc1ccc(O)cc1)NCCc1ccc(O)c(O)c1` (stereo not shown) [Dobutamine, reference compound], the “clearance from the blood” value [6] is listed as “rapidly cleared from the blood”, the concentration at 10 min [2] is listed as 155 ng/mL and the concentration at 20 min [2] is listed as 176 ng/mL. The concentration at 0.5 h [2] was 158 ng/mL, the “Inotropic Response, Percent Change” value (left ventricular dP/dt; 5 mg/kg) was 2.7 ± 2% and the “cardioselectivity” value [7] was “cardioselective in its actions”. For the same compound, the “inotropic response when swallowed” value (cardiac contractility [4]) was “did not produce a response significantly better than the placebo” and the “Blood Pressure, Mean ± S.E. (change in diastolic blood pressure)” value (diastolic blood pressure) was 7.8 ± 4.5.
